Test results published in US20260297542A1, “HERBICIDE RESISTANT PLANTS” (SYNGENTA CROP PROTECTION AG, priority 2023, published 2026).

What follows are compounds tested against T1, His-TEV-AtPP01 ΔcTP (SEQ ID NO: 370) (Arabidopsis thaliana, UniProt P55826) (assay: PPO fluorescence IC50 assay, partially purified enzyme). Settings: not given.
T1 construct: with cTPs removed; made in house; host or cells: E. coli BL21 (DE3), His GraviTrap, partially purified
T1 sequence (P55826 with tags, fused parts or gaps): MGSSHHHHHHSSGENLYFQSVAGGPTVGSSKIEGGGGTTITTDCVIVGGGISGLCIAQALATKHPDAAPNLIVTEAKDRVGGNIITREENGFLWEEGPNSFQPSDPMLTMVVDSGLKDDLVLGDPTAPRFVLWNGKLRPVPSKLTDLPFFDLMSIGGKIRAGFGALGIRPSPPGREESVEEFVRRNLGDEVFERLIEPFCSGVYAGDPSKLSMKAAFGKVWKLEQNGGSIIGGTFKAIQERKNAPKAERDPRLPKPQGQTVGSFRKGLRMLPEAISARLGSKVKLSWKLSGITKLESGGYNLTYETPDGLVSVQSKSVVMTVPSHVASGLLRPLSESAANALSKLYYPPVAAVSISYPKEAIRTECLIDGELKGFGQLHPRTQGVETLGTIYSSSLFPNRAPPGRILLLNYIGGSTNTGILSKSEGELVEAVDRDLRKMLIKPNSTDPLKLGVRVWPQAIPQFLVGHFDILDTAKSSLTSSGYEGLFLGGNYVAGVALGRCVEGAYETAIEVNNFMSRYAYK
Format: biochemical
Excerpt: A pET24 plasmid containing a DNA sequence encoding variants of AtPPO1 derived from Arabidopsis thaliana with cTPs removed and both a 6×His tag and TEV protease cleavage tag added at the N-terminus, codon-optimised for expression in E. coli, and under control of a T7 promoter, was synthesised by Twist Bioscience. The following variants were synthesised: WT AtPPO1 (SEQ ID NO: 370), AtPPO1 L479M (SEQ ID NO: 371), AtPPO1 L479N (SEQ ID NO: 372), AtPPO1 S305L Y426V (SEQ ID NO: 374) and AtPPO1 S305L Y426V L479M (SEQ ID NO: 373). This plasmid was expressed in E. coli BL21 (DE3) with 50 μg/mL kanamycin selection. 10 mL of overnight cultures grown at 37° C. were used to inoculate 1 L AIM (AIM-Terrific Broth Base including Trace elements, Formedium) in 2 L shake flasks. Cultures were grown at 37° C., 200 rpm for 3 hours and then overnight at 26° C. Cells were harvested centrifugation. 5-15 g of cell pellet was lysed in and resuspended in ratio of 1:1.5 in lysis buffer (20 mM Tris pH8, 500 mM sodium chloride, 10% glycerol, 1× complete Protease EDTA-free Inhibitor Tablet (Roche), 10 mM imidazole). The resuspension was sonicated at 75% using 10 cycles of 30 seconds, 40 seconds off. After sonication Triton X-100 was added to the lysates at a final concentration of 0.5%. The lysates were centrifuged at 20,000 rpm for 25 min at 4° C. Cleared lysates were loaded on His GraviTrap (Cytiva) columns, washed with 20 mL of lysis buffer and eluted in elution buffer (20 mM Tris pH8, 500 mM sodium chloride, 10% glycerol, 200 mM imidazole, 0.03% (v/v) Triton X-100). The eluate was desalted on a PD10 column and 2.5-3.2 mL was collected. Protein concentration was measured and calculated using the absorbance at 280 nm. Extracts were diluted 1 in 4 and 10 uL was analysed by SDS PAGE.
Partially purified Protoporphyrinogen Oxidase enzymes were assayed for activity using fluorescence adapted from the method of Shepherd & Dailey (Anal Biochem. 2005 344(1) 115-121). The assay was performed in black 384 well plates with a clear bottom and the total volume of the reaction mixture was 91 ul. The final assay mixture contained 100 mM K2HPO4 pH7.2, 1 mM Na2EDTA, 5 mM DTT, 20% glycerol (v/v), 0.05% Tween 20 (v/v), 1.1% DMSO (v/v), 1 uM protoporphyrinogen IX and 1.5 nM enzyme. Compounds were dissolved in DMSO at 1 mM and a 4-fold serial dilution carried out to give 8 rates. 1 ul was added to the assay mixture. This gave final compound concentrations of 11, 2.7, 0.69, 0.17, 0.04, 0.01, 0.002, 0.0007 uM. Enzyme and inhibitor were preincubated for 5 minutes prior to starting the reaction with the addition of the substrate. […] IC50s were calculated using GraphPad Prism 7.05 nonlinear regression (Table 6). Each compound was tested in duplicate.

SMILES | IC50 [pM]
C#CCN1C(=O)COc2cc(F)c(N3C(=O)C4=C(CCCC4)C3=O)cc21 [Flumioxazin, flumioxazin] | 800
CC(C)N(C)S(=O)(=O)NC(=O)c1cc(-n2c(=O)cc(C(F)(F)F)n(C)c2=O)c(F)cc1Cl [Herbicide E, saflufenacil] | 2100
CCOC(=O)COc1cc(-c2nn(C)c(OC(F)F)c2Cl)c(F)cc1Cl [Pyraflufen-ethyl, pyraflufen-ethyl] | 600
CC(C)Oc1cc(-n2nc(C(C)(C)C)oc2=O)c(Cl)cc1Cl [Oxadiazaon] | 19000
C#CCN1C(=O)C(F)(F)Oc2cc(F)c(-n3c(=O)n(C)c(=S)n(C)c3=O)cc21 [Herbicide B, trifludimoxazin] | 700
C=CCOC(=O)C(C)(C)OC(=O)c1cc(-n2c(=O)cc(C(F)(F)F)n(C)c2=O)ccc1Cl [Butafenacil, butafenacil] | 600
C#CCOc1cc(-n2nc3n(c2=O)CCCC3)c(Cl)cc1Cl [Azafenadin] | 800
C#CCN(C)c1c(C#N)cnn1-c1nn2c(c1Cl)CCCC2 [Pyraclonil] | 2500
CS(=O)(=O)NC(=O)c1cc(Oc2ccc(C(F)(F)F)cc2Cl)ccc1[N+](=O)[O-] [Fomesafen, fomesafen] | 1800
CCOC(=O)C1(C)CC(c2cc(-n3c(=O)cc(C(F)(F)F)n(C)c3=O)c(F)cc2Cl)=NO1 (stereo not drawn) [Herbicide C, 3-(2-chloro-4-fluoro-5-(3-methyl-2,6-dioxo-4-trifluoromethyl-3,6-dihydropyrimidin-1(2H)-yl)phenyl)-5-methyl-4,5-dihydroisoxazole-5-carboxylic acid ethyl ester] | 700
CCOC(=O)COc1ncccc1Oc1cc(-n2c(=O)cc(C(F)(F)F)n(C)c2=O)c(F)cc1Cl [Herbicide A, epyrifenacil] | 700

Same assay, conditions: role: inhibitor; 1 uM protoporphyrinogen IX; <1.0 is below detection limit of assay

SMILES | IC50 [pM]
COC(=O)C(C)ON=Cc1cc(-n2c(=O)cc(C(F)(F)F)n(C)c2=O)c(F)cc1Cl (stereo not drawn) [Flufenoximacil, flufenoximacil] | 600
